Measurements as given in patent publication EP0977560B1 (PAZ Arzneimittel- Entwicklungsgesellschaft mbH, priority 1997, dated 1998).

Key:
[1] = system: Transkriptionsfaktors NF-κB; assay: Electro mobility shift assay (DIG Gel Shift Kit) of NF-κB activation in TPA-stimulated Jurkat cells; assay type: cell-based; settings: Phorbolester (TPA) stimulated Jurkat-Zellen; two-hour preincubation; 100, 10 and 1 ptm (Spur 3-5); Abbildung 1
Description: Einfluß von R-Ibuprofen-CoA-Thioester auf die Aktivierung des Transkriptionsfaktors NF-κB in Jurkat-Zellen. […] Spur 1 zeigt die unstimulierten, Spur 2 die stimulierten Kontrollzellen.

[2] = system: PGHS-2 (Cyclooxygenase-2); assay: Formation of PGHS-2 in LPS-induced monocytes (method after Brideau et al., human whole blood assay); assay type: cell-based; settings: LPS-induced Monozyten, 24 Std.; R-Ibuprofenoyl-CoA 0.5, 0.25, 0.05 mM; Ibuprofen, razemisch 1.0, 0.1, 0.05 mM; Abbildung 2
Description: Inkubation von LPS-induzierten Monozyten (24 Std.). […] Methode nach: BRIDEAU, C., KARGMAN, S., LIU, S., DALLOB, A.L., EHRICH, E.W., RODGER, I.W. & CHAN, C.C. […] A human whole blood assay for clinical evaluation of biochemical efficacy of cyclooxygenase inhibitors. Inflamm. Res., 45, 68-74.

For CC(C)Cc1ccc([C@@H](C)C(=O)SCCNC(=O)CCNC(=O)[C@H](O)C(C)(C)COP(=O)(O)OP(=O)(O)OC[C@H]2O[C@@H](n3cnc4c(N)ncnc43)[C@H](O)[C@@H]2OP(=O)(O)O)cc1 [R-Ibuprofen-CoA-Thioester], the “Aktivierung des Transkriptionsfaktors NF-κB” value [1] was “Aktivierungshemmung von NF-κB” and the “Bildung von PGHS-2 (Cyclooxygenase-2)” value [2] was “dosisabhängig zu einer Unterdrückung der Bildung von PGHS-2”.
